The assay deals with MCH receptor (Homo sapiens, UniProt Q99705). Kind of assay: Receptor binding assay with Radiolabelled MCH Ligand. The following applies: class by percent of control at 10^-7 M or IC50. Also noted: expressed in transfected cells; host or cells: 293 cells (human kidney, ATCC), transient transfection; crude membranes. An outline of the steps: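 This was a filtration radioligand displacement assay: compounds, first tested at 1 and 0.1 μM and then over a range, inhibited binding of a labelled MCH ligand to transfected 293-cell membranes at room temperature for 60–120 min. Specific binding excluded a cold-MCH nonspecific signal. Ki was derived from IC50 via Cheng-Prusoff, using an independently measured KD.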
MCH receptor, sequence (Q99705 whole entry): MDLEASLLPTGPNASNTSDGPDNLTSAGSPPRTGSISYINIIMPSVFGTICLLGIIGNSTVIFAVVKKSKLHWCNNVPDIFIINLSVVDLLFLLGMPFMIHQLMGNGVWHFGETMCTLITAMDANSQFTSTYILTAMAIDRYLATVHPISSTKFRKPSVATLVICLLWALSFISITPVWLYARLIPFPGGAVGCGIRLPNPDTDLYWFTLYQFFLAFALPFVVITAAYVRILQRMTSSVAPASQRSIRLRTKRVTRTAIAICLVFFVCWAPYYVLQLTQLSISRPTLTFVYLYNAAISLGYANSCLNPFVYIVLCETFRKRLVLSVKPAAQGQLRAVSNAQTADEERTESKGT
For `Cc1nc(N[C@H]2CC[C@@H](NS(=O)(=O)Cc3ccc(F)cc3)CC2)cc(N(C)C)n1` [compound 474, N-(cis-4-{[6-(dimethylamino)-2-methylpyrimidim-4-yl]amino}cyclohexyl)-1-(4-fluorophenyl)methanesulfonamide], the class is 3 (Class 3: The value of percent of control at 10^−7 M was more than 60% or the value of IC50 was more than 200 nM.).

As to `Cc1nc(N[C@H]2CC[C@@H](NC(=S)Nc3ccc(N(C)C)c4ccccc34)CC2)cc(N(C)C)n1` [compound 440], the class was 3 (Class 3: The value of percent of control at 10^−7 M was more than 60% or the value of IC50 was more than 200 nM.). With `COC(=O)c1csc(S(=O)(=O)N[C@H]2CC[C@@H](Nc3cc(N(C)C)nc(C)n3)CC2)c1OC` [compound 518], the class is recorded as 3 (Class 3: The value of percent of control at 10^−7 M was more than 60% or the value of IC50 was more than 200 nM.). As for `Cc1nc(N[C@H]2CC[C@@H](NCc3cccc(C(F)(F)F)c3)CC2)cc(N(C)C)n1` [compound 386], the figure is 3 (Class 3: The value of percent of control at 10^−7 M was more than 60% or the value of IC50 was more than 200 nM.); as for `Cc1nc(N[C@H]2CC[C@@H](NC(=O)Cc3ccccc3I)CC2)cc(N(C)C)n1` [compound 287], 3 (Class 3: The value of percent of control at 10^−7 M was more than 60% or the value of IC50 was more than 200 nM.). Turning to `Cc1nc(N[C@H]2CC[C@@H](NCc3c(-c4c(F)cccc4Cl)noc3C)CC2)cc(N(C)C)n1` [compound 366], the class is reported as 3 (Class 3: The value of percent of control at 10^−7 M was more than 60% or the value of IC50 was more than 200 nM.). Regarding `Cc1ccnc(SCC(=O)N[C@H]2CC[C@@H](Nc3cc(N(C)C)nc(C)n3)CC2)n1` [compound 280], the class is given as 3 (Class 3: The value of percent of control at 10^−7 M was more than 60% or the value of IC50 was more than 200 nM.).

With `Cc1nc(N[C@H]2CC[C@@H](NC(=O)CSc3ccccc3)CC2)cc(N(C)C)n1` [compound 246], the class was 3 (Class 3: The value of percent of control at 10^−7 M was more than 60% or the value of IC50 was more than 200 nM.). As for `Cc1nc(N[C@H]2CC[C@@H](NS(=O)(=O)c3cccc(F)c3)CC2)cc(N(C)C)n1` [compound 503], the class is on record as 3 (Class 3: The value of percent of control at 10^−7 M was more than 60% or the value of IC50 was more than 200 nM.). In the case of `Cc1nc(N[C@H]2CC[C@@H](NC(=O)c3cnn(-c4ccc([N+](=O)[O-])cc4)c3C(F)(F)F)CC2)cc(N(C)C)n1` [compound 233] it was 3 (Class 3: The value of percent of control at 10^−7 M was more than 60% or the value of IC50 was more than 200 nM.); in that of `Cc1nc(N[C@H]2CC[C@@H](NS(=O)(=O)c3sc4ccc(Cl)cc4c3C)CC2)cc(N(C)C)n1` [compound 511], 3 (Class 3: The value of percent of control at 10^−7 M was more than 60% or the value of IC50 was more than 200 nM.).

Regarding `Cc1nc(N[C@H]2CC[C@@H](NCc3ccc(-c4ccccc4)cc3)CC2)cc(N(C)C)n1` [compound 355], the class is reported as 3 (Class 3: The value of percent of control at 10^−7 M was more than 60% or the value of IC50 was more than 200 nM.). Consider `Cc1nc(N[C@H]2CC[C@@H](NCC3CC3)CC2)cc(N(C)C)n1` [compound 362], for which the class was 3 (Class 3: The value of percent of control at 10^−7 M was more than 60% or the value of IC50 was more than 200 nM.). In the case of `C=Cc1ccc(S(=O)(=O)N[C@H]2CC[C@@H](Nc3cc(N(C)C)nc(C)n3)CC2)cc1` [compound 482] it was 3 (Class 3: The value of percent of control at 10^−7 M was more than 60% or the value of IC50 was more than 200 nM.); in that of `Cc1nc(NC2CCC(NC(=O)C(Cc3ccccc3)NS(=O)(=O)c3cccc4ccccc34)CC2)cc(N(C)C)n1` (stereo not drawn) [compound 260], 3 (Class 3: The value of percent of control at 10^−7 M was more than 60% or the value of IC50 was more than 200 nM.); in that of `COc1cc(OC)c(NC(=O)N[C@H]2CC[C@@H](Nc3cc(N(C)C)nc(C)n3)CC2)cc1Cl` [compound 426, N-(5-chloro-2,4-dimethoxyphenyl)-N′-(cis-4-{[6-(dimethylamino)-2-methylpyrimidin-4-yl]amino}cyclohexyl)urea], 2 (Class 2: The value of percent of control at 10^−7 M was from 40% to 60% or the value of IC50 was from 50 nM to 200 nM.).

With `Cc1nc(N[C@H]2CC[C@@H](NCc3ccc4ccccc4c3)CC2)cc(N(C)C)n1` [compound 378], the class was 3 (Class 3: The value of percent of control at 10^−7 M was more than 60% or the value of IC50 was more than 200 nM.). With `Cc1nc(N[C@H]2CC[C@@H](NC(=O)Nc3cccc4ccccc34)CC2)cc(N(C)C)n1` [compound 432], the class is reported as 3 (Class 3: The value of percent of control at 10^−7 M was more than 60% or the value of IC50 was more than 200 nM.). In the case of `Cc1nc(N[C@H]2CC[C@@H](NS(=O)(=O)c3cccc(C#N)c3)CC2)cc(N(C)C)n1` [compound 499] it was 3 (Class 3: The value of percent of control at 10^−7 M was more than 60% or the value of IC50 was more than 200 nM.). As to `Cc1nc(N[C@H]2CC[C@@H](NC(=O)c3ccc(Oc4ccccc4)cc3)CC2)cc(N(C)C)n1` [compound 326], the class is listed as 3 (Class 3: The value of percent of control at 10^−7 M was more than 60% or the value of IC50 was more than 200 nM.). On to `COc1ccc(CN[C@H]2CC[C@@H](Nc3cc(N(C)C)nc(C)n3)CC2)cc1OC` [compound 370], for which the class is given as 3 (Class 3: The value of percent of control at 10^−7 M was more than 60% or the value of IC50 was more than 200 nM.). `Cc1nc(N[C@H]2CC[C@@H](NCc3cnn(-c4ccccc4)c3C(F)(F)F)CC2)cc(N(C)C)n1` [compound 384]: the class is 3 (Class 3: The value of percent of control at 10^−7 M was more than 60% or the value of IC50 was more than 200 nM.). As for `Cc1nc(N[C@H]2CC[C@@H](NC(=O)c3ccc(-c4ccccc4)cc3)CC2)cc(N(C)C)n1` [compound 201], the figure is 3 (Class 3: The value of percent of control at 10^−7 M was more than 60% or the value of IC50 was more than 200 nM.). As for `Cc1nc(N[C@H]2CC[C@@H](NC(=O)OCC3c4ccccc4-c4ccccc43)CC2)cc(N(C)C)n1` [compound 469], the figure is 3 (Class 3: The value of percent of control at 10^−7 M was more than 60% or the value of IC50 was more than 200 nM.); as for `Cc1nc(N[C@H]2CC[C@@H](NC(=O)OCc3ccccc3)CC2)cc(N(C)C)n1` [compound 463], 3 (Class 3: The value of percent of control at 10^−7 M was more than 60% or the value of IC50 was more than 200 nM.). As to `Cc1nc(N[C@H]2CC[C@@H](NC(=O)c3ccc(Cl)cc3)CC2)cc(N(C)C)n1` [compound 208, 4-chloro-N-(cis-4-{[6-(dimethylamino)-2-methylpyrimidin-4-yl]amino}cyclohexyl)benzamide], the class is on record as 2 (Class 2: The value of percent of control at 10^−7 M was from 40% to 60% or the value of IC50 was from 50 nM to 200 nM.). Regarding `Cc1nc(N[C@H]2CC[C@@H](NC(=O)c3ccc(C#N)cc3)CC2)cc(N(C)C)n1` [compound 259], the class is 3 (Class 3: The value of percent of control at 10^−7 M was more than 60% or the value of IC50 was more than 200 nM.).
